Source: article PMC5320518, “Novel Liver-targeted conjugates of Glycogen Phosphorylase Inhibitor PSN-357 for the Treatment of Diabetes: Design, Synthesis, Pharmacokinetic and Pharmacological Evaluations” (Scientific Reports, 2017)
Several values for one entry are separate records, joined by “and”; a condition that tells them apart may be missing. Equal entries are not always repeated. Where two headings read alike, the source gives them in different places.

Assays:
[1] = molecular target: T1, rabbit muscle GPa (RMGPa) (Oryctolagus cuniculus, UniProt P00489); test: RMGPa inhibition assay (phosphate release from glucose-1-phosphate); format: biochemical; conditions: mean ± S.D. of three determinations; NI means no inhibition
T1 sequence (P00489 2-843 limits assumed): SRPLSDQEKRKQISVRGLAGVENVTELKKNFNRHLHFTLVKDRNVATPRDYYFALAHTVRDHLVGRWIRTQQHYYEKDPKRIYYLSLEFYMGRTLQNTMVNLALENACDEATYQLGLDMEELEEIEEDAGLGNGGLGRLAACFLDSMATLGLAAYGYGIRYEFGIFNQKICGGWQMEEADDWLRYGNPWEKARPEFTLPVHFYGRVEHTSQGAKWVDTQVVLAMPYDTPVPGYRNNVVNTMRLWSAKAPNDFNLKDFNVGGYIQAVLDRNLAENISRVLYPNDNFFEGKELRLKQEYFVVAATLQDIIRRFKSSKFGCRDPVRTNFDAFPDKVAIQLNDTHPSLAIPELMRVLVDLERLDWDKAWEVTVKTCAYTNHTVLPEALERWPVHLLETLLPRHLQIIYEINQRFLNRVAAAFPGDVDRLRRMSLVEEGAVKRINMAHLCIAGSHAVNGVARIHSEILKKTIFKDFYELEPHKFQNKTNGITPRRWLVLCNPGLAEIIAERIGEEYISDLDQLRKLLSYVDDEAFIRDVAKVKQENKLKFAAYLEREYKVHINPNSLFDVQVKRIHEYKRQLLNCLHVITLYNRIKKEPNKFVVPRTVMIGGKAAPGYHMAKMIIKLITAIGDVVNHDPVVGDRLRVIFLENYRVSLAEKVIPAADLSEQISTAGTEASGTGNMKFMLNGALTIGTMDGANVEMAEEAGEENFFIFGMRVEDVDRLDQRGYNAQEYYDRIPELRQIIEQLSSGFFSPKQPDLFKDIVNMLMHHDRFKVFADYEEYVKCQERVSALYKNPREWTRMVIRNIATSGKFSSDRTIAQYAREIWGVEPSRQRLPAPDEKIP
Description: All the compounds were evaluated for their inhibitory activity against rabbit muscle GPa (RMGPa). The activity of RMGPa was measured through detecting the release of phosphate from glucose-1-phosphate in the direction of glycogen synthesis. CP-91149, a well-known allosteric GP inhibitor, which shares the same binding site with PSN-357, was used as the positive control and the results are summarized in Table 1[21]. […] This remarkable loss of activity was probably due to the direct steric interference by such bulky substituent of cholic acid group. […] The results is consistent with the SARs of PSN-357 that the hydroxyl of piperidine is not an essential group for the GP inhibitory activity that could be modified slightly.
The inhibitory activity of the test compounds against rabbit muscle glycogen phosphorylase a (GPa) was monitored using microplate reader (BIO-RAD) based on the published method. In brief, GPa activity was measured in the direction of glycogen synthesis by the release of phosphate from glucose-1-phosphate. Each test compound was dissolved in DMSO and diluted at different concentrations for IC50 determination. The enzyme was added into 100 μL of buffer containing 50 mM Hepes (pH = 7.2), 100 mM KCl, 2.5 mM MgCl2, 0.5 mM glucose-1-phosphate, 1 mg/mL glycogen and the test compound in 96-well microplates (Costar). After the addition of 150 μL of 1 M HCl containing 10 mg/mL ammonium molybdate and 0.38 mg/mL malachite green, reactions were run at 22 °C for 25 min, and then the phosphate absorbance was measured at 655 nm. The IC50 values were estimated by fitting the inhibition data to a dose-dependent curve using a logistic derivative equation.

[2] = Stability in mouse liver microsomes (MLM); format: in vitro ADME; conditions: for CLint scaled at 10 μM / half-life at 10 μM / microsomal CLint at 10 μM: C57BL/6, pH 7.4, n = 3
Description: Additionally, the compounds’ stability in microsome were evaluated by measuring the rate of compounds consumpation in MLM and the results are shown in Table 3.
The microsomal pellet was suspended in potassium phosphate buffer (100 mM, pH 7.4), 10 μM test compound or positive control (diclofenac) was added. Liver microsomes from C57BL/6 mice (BD Gentest) were pooled. The mixture of microsome solution and compound was incubated at 37 °C for about 10 min in the presence of a NADPH-regenerating system, consisting of 0.02 M DL-isocitric acid (trisodium salt), 0.1 mg/mL isocitrate dehydrogenase and 1 mM NADPH. The addition of ice-cold CH3CN (including 100 ng/mL tolbutamide as internal standard) terminated the reaction. The mixture was vortexed for approx (30 s), centrifuged (20 min, 4000 rpm) and the supernatant was collected and analysed by LC-MS/MS method.

[3] = Stability in simulated intestinal fluid (SIF); format: in vitro ADME; conditions: for time within which degraded in SIF: SIF pH 6.79 with pancreatin, 2 μM, 37 °C
Description: (§1) All the conjugates were tested for their chemical and metabolic stability in multiple assays, including simulated gastric fluid (SGF), simulated interstinal fluid (SIF), mouse plasma, and mouse liver microsome (MLM).
(§2) For the stability in SGF (Fig. 8) and SIF (Fig. 9), the conjugates could be divided into three groups: (1) stable conjugates 2, 6 and 9. […] The two conjugates were degraded within 6 h and 1 h in SGF and SIF, respectively, with alomost no conjugates at the end of the 24 h incubation in both SGF and SIF; (3) complicated conjugates 3, 4, 5 and 8.
(§3) The simulated gastrointestinal fluids were prepared according to USP specifications. For SGF, NaCl (0.12 g) and pepsin (0.18 g, from porcine stomach mucosa) was dissolved in HCl (0.42 mL) and sufficient H2O was added to make 60 mL. The pH of the test solution was determined as 1.21 by pH meter. For the SIF, KH2PO4 (0.408 g) and pancreatin (0.6 g, from porcine pancreas) was dissolved in H2O (60 mL). The pH of the test solution was determined as 6.79 by pH meter. Each test compound was dissolved in DMSO and diluted to a final concentration of 2 μM in SIF and SGF. The final concentrations of DMSO and CH3CN in the incubation mixture were 0.2% and 0.45%. Aliquots of these solutions were pipetted into glass tubes, and placed in a 37 °C shaking water bath. Test samples at corresponding time point (1, 2, 6, 24 h) were removed at the end of incubation time and immediately mixed with 800 μL of cold acetonitrile containing 500 ng/mL tolbutamide (internal standard). Samples were subjected to centrifuge at 4000 rpm, 4 °C for 20 min. Aliquots 60 μL of supernatant was combined with 120 μL water for LC-MS/MS analysis.

[4] = Stability in simulated gastric fluid (SGF); format: in vitro ADME; conditions: SGF pH 1.21 with pepsin, 2 μM, 37 °C; for stability in SGF (in words): 24 h incubation
Description: as §1, §2, §3

skeletal muscle function = test system: skeletal muscle function; design: method as in PMID 16046314, PMID 16731853; conditions: prolonged (60 min) muscle contraction, perfused rat hindlimb model; cited from earlier work
isolated rat hepatocytes = test: Glycogenolysis inhibition in isolated rat hepatocytes; format: cell-based; conditions: mean ± S.D. of three, NI means no inhibition
Text: (§4) To evaluate the effects of all compounds in cells, the glycogenolysis assays were established in both rat and human liver cells based on the published method. […] The inhibitory activities of the derivatives of PSN-357 (e.g. 25–28) were also explored. It is not surprising that the derivatives still retained micromolar inhibitory activities. Introduction of steric bulks to the hydroxyl group (e.g. 33, 40, 42, 48) led to a complete loss of activity. Data analysis indicated no clear SAR for the substitutents in the cell-based assays.
(§5) The inhibition of hepatic glycogenolysis was monitored by the measurement of liver glycogen, which was done quantitatively by the anthrone reagent (Sigma) colorimetric method based on the published method. Isolated rat hepatocytes or HepG2 cells (Sigma) were treated with the test compound or DMSO solvent (final concentration, 0.10%), followed by 60-min incubation with 0.3 nM glucagon (GGN). Assays were terminated by centrifugation, and cells were digested with 30% KOH followed by glycogen determination. The IC50 values were estimated by fitting the inhibition data to a dose-dependent curve using a logistic derivative equation.

HepG2 cells = test: Glycogenolysis inhibition in HepG2 cells; format: cell-based, human; conditions: HepG2 cells, 60-min incubation with 0.3 nM glucagon, mean ± S.D. of three, NI means no inhibition, read-out: IC50 (glycogenolysis inhibition, HepG2 cells)
Text: as §4, §5

[5] = Stability in mouse plasma; format: in vitro ADME; conditions: 2 μM, 37 °C, 120-min test
Description: Frozen plasma from male C57 BL/6 mice was incubated for 5 min at 37 °C before the addition of the test compound. Then prepared 2 μM incubation sample, and aliquots of the incubation mixtures (100 μL) were taken at predetermined time points (10, 30, 60, 120 min) at 37 °C. After incubation, the mixtures was added 400 μL of 50% ACN/50% MeOH containing internal standard (IS, 200 ng/mL Tolbutamide and 20 ng/mL Buspirone) to each sample tube and then centrifuged at 13000 rpm for 8 min. Blank incubations in the absence of the test compound were also performed. The analyses of test compounds were performed by LC-MS/MS analysis.

[6] = Rattus norvegicus, Hepatocyte, 1 h, read-out: IC50 (glycogenolysis inhibition, rat hepatocytes), isolated rat hepatocytes, 60-min incubation with 0.3 nM glucagon

Compound | IC50 [1] | CLint scaled at 10 μM [2] [mL/min/kg] | half-life at 10 μM [2] [min] | microsomal CLint at 10 μM [2] [µL/min/mg] | melting point [°C] | time within which degraded in SIF [3] [h] | stability in SGF (in words) [4] | greater muscle fatigue than the control group (skeletal muscle function) [%] | IC50 (isolated rat hepatocytes; [6]) [µM] | fraction degraded during 24 h incubation in SIF [3] | IC50 (HepG2 cells; Homo sapiens, HepG2, 1 h) [µM] | time within which degraded in SGF [4] [h] | IC50 (RMGPa inhibition) [1] | degradation in mouse plasma [5] | metabolic stability in MLM (in words) [2] | IC50 (isolated rat hepatocytes; read-out: IC50 (glycogenolysis inhibition, rat hepatocytes), isolated rat hepatocytes, 60-min incubation with 0.3 nM glucagon) [µM] | IC50 (HepG2 cells) [µM]
C[C@H](CCC(=O)N[C@@H](CO)C(=O)OC1CCN(C(=O)[C@H](Cc2ccc(F)cc2)NC(=O)c2cc3cc(Cl)ncc3[nH]2)CC1)[C@H]1CC[C@H]2[C@@H]3[C@H](O)C[C@@H]4C[C@H](O)CC[C@]4(C)[C@H]3C[C@H](O)[C@]12C [Conjugate 5] | 81.9 ± 14.4 µM | 135 | 40.8 | 34 | 175 to 177 | ≤ 1 | relatively stable | – | – | – | – | – | – | – | – | – | –
CP316819 | – | – | – | – | – | – | – | 35 | – | – | – | – | – | – | – | – | –
C[C@H](CCC(=O)N(C)CC(=O)OC1CCN(C(=O)[C@H](Cc2ccc(F)cc2)NC(=O)c2cc3cc(Cl)ncc3[nH]2)CC1)[C@H]1CC[C@H]2[C@@H]3[C@H](O)C[C@@H]4C[C@H](O)CC[C@]4(C)[C@H]3C[C@H](O)[C@]12C [Conjugate 2] | 26 ± 13.9 µM | 220 | 24.9 | 55.6 | 183 to 185 | – | stable | – | 845 ± 132 | no more than 20% | 172 ± 18.2 | – | – | – | – | – | –
CC(NC(=O)C(NC(=O)CCC(C)C1CCC2C3C(O)CC4CC(O)CCC4(C)C3CC(O)C12C)C(C)C)C(=O)OC1CCN(C(=O)C(Cc2ccc(F)cc2)NC(=O)c2cc3cc(Cl)ncc3[nH]2)CC1 (centres unmarked) [Conjugate 7] | 6.07 ± 0.27 µM | 1180 | 4.7 | 297 | – | ≤ 1 | – | – | 42.1 ± 10.9 | – | 11.7 ± 3.8 | ≤ 6 | – | – | – | – | –
CC(C)[C@H](NC(=O)CC[C@@H](C)[C@H]1CC[C@H]2[C@@H]3[C@H](O)C[C@@H]4C[C@H](O)CC[C@]4(C)[C@H]3C[C@H](O)[C@]12C)C(=O)OC1CCN(C(=O)[C@H](Cc2ccc(F)cc2)NC(=O)c2cc3cc(Cl)ncc3[nH]2)CC1 [Conjugate 4] | – | 150 | 36.5 | 38 | 185 to 187 | ≤ 1 | relatively stable | – | – | – | – | – | no activity | approximately 4% | – | – | –
C[C@H](CCC(=O)NCCNC(=O)c1ccc(/N=N/c2ccccc2CCC(=O)OC2CCN(C(=O)[C@H](Cc3ccc(F)cc3)NC(=O)c3cc4cc(Cl)ncc4[nH]3)CC2)cc1)[C@H]1CC[C@H]2[C@@H]3[C@H](O)C[C@@H]4C[C@H](O)CC[C@]4(C)[C@H]3C[C@H](O)[C@]12C [Conjugate 9] | 51.7 ± 4.1 µM | 60.2 | 91.2 | 15.2 | 172 to 174 | – | stable | – | 12.3 | no more than 20% | 6.4 | – | – | – | considerable metabolic stability | 12.3 ± 3.93 | 6.41 ± 1.25
C[C@H](CCC(=O)NCC(=O)OC1CCN(C(=O)[C@H](Cc2ccc(F)cc2)NC(=O)c2cc3cc(Cl)ncc3[nH]2)CC1)[C@H]1CC[C@H]2[C@@H]3[C@H](O)C[C@@H]4C[C@H](O)CC[C@]4(C)[C@H]3C[C@H](O)[C@]12C [Conjugate 1] | 5.9 µM and 5.94 µM | 172 | 31.9 | 43.4 | – | ≤ 1 | – | – | 41.1 ± 5.11 | – | 203 ± 3.39 | ≤ 6 | – | – | – | – | –
